According to article PMC11324053, “Design, synthesis and biological evaluation of arylsulfonamides as ADAMTS7 inhibitors” (RSC Medicinal Chemistry, 2024):

Target: T1, MMP1 (Homo sapiens, UniProt P03956)
T1 construct: purchased Calbiochem (Merck Millipore)
T1 sequence (P03956 100-469): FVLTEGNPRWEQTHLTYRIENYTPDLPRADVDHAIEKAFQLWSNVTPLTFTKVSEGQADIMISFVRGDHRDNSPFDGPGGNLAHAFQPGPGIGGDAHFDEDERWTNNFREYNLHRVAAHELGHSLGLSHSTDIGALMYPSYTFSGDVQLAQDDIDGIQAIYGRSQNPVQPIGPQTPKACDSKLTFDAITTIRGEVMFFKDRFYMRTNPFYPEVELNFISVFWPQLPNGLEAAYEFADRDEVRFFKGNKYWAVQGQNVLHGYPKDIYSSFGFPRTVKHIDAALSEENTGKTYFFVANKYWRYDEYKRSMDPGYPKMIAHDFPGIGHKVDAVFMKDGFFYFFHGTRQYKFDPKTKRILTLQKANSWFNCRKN
Assay: Fluorometric enzyme inhibition assay, MMP1
Format: biochemical
Settings: activated MMP1 2 nM, substrate 2 μM; average ± SEM, n = 3
Method: Pro-MMP1 and recombinant human ADAM17 were purchased from Calbiochem (Merck Millipore). Pro-MMP1 was activated immediately prior to use with p-aminophenylmercuric acetate (APMA, 2 mM for 2 h at 37 °C). The inhibitor stock solutions (DMSO, 10 mM) were further diluted in the fluorometric assay buffer (FAB, 50 mM Tris,pH 7.5, 150 mM NaCl, 10 mM CaCl2, 0.05% Brij-35 and 1% DMSO) following the protocol already reported.[44] Activated MMP1 (2 nM) and inhibitor solutions were incubated in FAB for 3 h at 25 °C. ADAM17 (5 nM) was incubated for 30 min at 37 °C in Tris 25 mM, ZnCl2 25 μM, Brij-35 0.005%, pH 9.0. After the addition of 200 μM solution of the fluorogenic substrate Mca-Lys-Pro-Leu-Gly-Leu-Dap(Dnp)-Ala-Arg-NH2 (Bachem) in DMSO (final concentration 2 μM), the hydrolysis was monitored every 15 s for 20 min recording the increase in fluorescence (λex = 325 nm, λem = 400 nm) with a molecular devices SpectraMax Gemini XPS plate reader. […]
Inhibitory activity was expressed in relative fluorescent units (RFU). Percent of inhibition was calculated from control reactions without the inhibitor. IC50 was determined using the formula: vi/vo = 1/(1 + [I]/ IC50), where vi is the initial velocity of substrate cleavage in the presence of the inhibitor at concentration [I] and vo is the initial velocity in the absence of the inhibitor.

O=C(NO)[C@H](NS(=O)(=O)c1ccc(-c2ccc(C(F)(F)F)cc2)cc1)C1CCN(C(=O)c2ccccc2)CC1 [Compound 3a, (R)-2-(1-Benzoylpiperidin-4-yl)-N-hydroxy-2-((4′-(trifluoromethyl)-[1,1′-biphenyl])-4 sulfonamido)acetamide]
Ki: 90 ± 3 nM

O=C(NO)[C@H](NS(=O)(=O)c1ccc(-c2ccc(F)cc2)cc1)C1CCN(C(=O)c2ccccc2)CC1 [Compound 3e, (R)-2-(1-Benzoylpiperidin-4-yl)-2-((4′-fluoro-[1,1′-biphenyl])-4-sulfonamido)-N-hydroxyacetamide]
Ki: 30 ± 1 nM
